Our source for the remaining activity values is paper PMC8286840, “Identifying SARS-CoV-2 antiviral compounds by screening for small molecule inhibitors of Nsp3 papain-like protease” (Biochemical Journal, 2021).

Counter-ions that a name gives are not always drawn. Like-named read-outs stand apart in the source and are kept apart here.

Assay [1] deals with T1, SARS-CoV-2 PLpro (nsp3 1564–1878) (Severe acute respiratory syndrome coronavirus 2, UniProt P0DTD1). In words: biochemical. On the set-up: FRET-quenched peptide (Pro3) cleavage by PLpro, 10 min pre-incubation, slope over 20 min, normalised to no-compound control. To be noted: low concentration screen, read-out: % of control remaining.
Assay [2] concerns the target T1, SARS-CoV-2 PLpro (nsp3 1564–1878). In words: biochemical. On the set-up: FRET-quenched peptide (Pro3) cleavage by PLpro, 10 min pre-incubation, slope over 20 min, normalised to no-compound control. To be noted: high concentration screen, read-out: % of control remaining.

In the case of `CC(=O)O[C@]1(C(C)=O)CC[C@H]2[C@@H]3C=C(Cl)C4=CC(=O)[C@@H]5C[C@@H]5[C@]4(C)[C@H]3CC[C@@]21C` [Cyproterone acetate], the remaining activity at 1.25 µM was found to be 95.3% in assay [1] (Well no.=316) and 99.5% in assay [1] (Well no.=1934). Also, the results for the remaining activity at 3.75 µM in assay [2] (Well no.=316) and in assay [2] (Well no.=1934) were 95.7% and 99.8%, respectively.

As to `NCCSSCCN` [Cystamine dihydrochloride], the remaining activity at 1.25 µM in assay [1] (Well no.=280) was 97%. In addition, in assay [2] (Well no.=280), the remaining activity at 3.75 µM is 99.9%.

As for `NCCS` [Cysteamine hydrochloride], the remaining activity at 1.25 µM in assay [1] (Well no.=884) was determined as 105%. The remaining activity at 3.75 µM in assay [2] (Well no.=884) is 103%.

As for `Nc1ccn([C@@H]2O[C@H](CO)[C@@H](O)[C@@H]2O)c(=O)n1` [Cytarabine], the remaining activity at 1.25 µM in assay [1] (Well no.=1938) was determined as 99.8%; in assay [1] (Well no.=8847), 108%. Besides, the remaining activity at 3.75 µM in assay [2] (Well no.=1938) was determined as 98.4%; in assay [2] (Well no.=8847), 105%.

For the compound `Nc1ccn([C@@H]2O[C@H](CO)[C@@H](O)[C@H]2O)c(=O)n1` [Cytidine], the figures for the remaining activity at 1.25 µM in assay [1] (Well no.=5054), in assay [1] (Well no.=6205) and in assay [1] (Well no.=8014) were 97.5%, 108% and 98.6%, respectively. Further, the remaining activity at 3.75 µM in assay [2] (Well no.=5054) was found to be 100%; in assay [2] (Well no.=6205), 110%; in assay [2] (Well no.=8014), 97.3%.

Take `C=C1[C@@H](C)[C@H]2[C@H](Cc3ccccc3)NC(=O)[C@]23OC(=O)/C=C/[C@H](O)CCC[C@@H](C)C/C=C/[C@H]3[C@@H]1O` [Cytochalasin B]: the remaining activity at 1.25 µM in assay [1] (Well no.=3189) amounted to 98%. Besides, in assay [2] (Well no.=3189), the remaining activity at 3.75 µM was 98.1%.

Turning to `C=C1[C@@H](C)[C@H]2[C@H](Cc3ccccc3)NC(=O)[C@]23[C@H](OC(C)=O)/C=C/[C@@](C)(O)C(=O)[C@@H](C)C/C=C/[C@H]3[C@@H]1O` [Cytochalasin D], in assay [1] (Well no.=3581), the remaining activity at 1.25 µM was found to be 98.2%. Further, the remaining activity at 3.75 µM in assay [2] (Well no.=3581) was determined as 99.7%.

With `C[C@H]1C/C=C/[C@H]2[C@@H]3O[C@]3(C)[C@@H](C)[C@H]3[C@H](Cc4ccccc4)NC(=O)[C@]32OC(=O)O/C=C/[C@@](C)(O)C1=O` [Cytochalasin E], the remaining activity at 1.25 µM in assay [1] (Well no.=3627) came out at 101%. For the same compound, the remaining activity at 3.75 µM in assay [2] (Well no.=3627) is 103%.

`Nc1ccn([C@@H]2O[C@H](CO)[C@@H](O)[C@@H]2O)c(=O)n1` [Cytosine-1-beta-D-arabinofuranoside hydrochloride]: the remaining activity at 1.25 µM in assay [1] (Well no.=374) turned out to be 94.2%. Besides, the remaining activity at 3.75 µM in assay [2] (Well no.=374) was found to be 89.3%.

On to `Nc1cc[nH]c(=O)n1` [Cytosine], for which the remaining activity at 1.25 µM in assay [1] (Well no.=6579) amounted to 101%. Besides, the remaining activity at 3.75 µM in assay [2] (Well no.=6579) turned out to be 103%.

With `CCCCCCCC(=O)c1c(O)cc(O)cc1CC(=O)OCC` [Cytosporone B], the remaining activity at 1.25 µM in assay [1] (Well no.=5993) came to 98.3%. Moreover, the remaining activity at 3.75 µM in assay [2] (Well no.=5993) was 98.7%.

In the case of `N[C@H](CCCCCP(=O)(O)O)C(=O)O` [D(-)-2-Amino-7-phosphonoheptanoic acid], the remaining activity at 1.25 µM in assay [1] (Well no.=352) is 96.5%. Moreover, the remaining activity at 3.75 µM in assay [2] (Well no.=352) worked out at 98.1%.

On to `CC[C@@H](N)C(=O)O` [D(-)-2-Aminobutyric acid], for which the remaining activity at 1.25 µM in assay [1] (Well no.=7701) is 97.2%. The remaining activity at 3.75 µM in assay [2] (Well no.=7701) worked out at 92.5%.

With `C[C@@H](N)C(=O)O` [D-Alanine], the remaining activity at 1.25 µM in assay [1] (Well no.=7693) was 107%. The remaining activity at 3.75 µM in assay [2] (Well no.=7693) is 105%.

As to `OC[C@@H](O)C(O)[C@H](O)CO` [D-Arabitol], in assay [1] (Well no.=6501), the remaining activity at 1.25 µM worked out at 92.6%. Further, the remaining activity at 3.75 µM in assay [2] (Well no.=6501) was determined as 93.2%.

Turning to `N[C@@H]1CONC1=O` [D-Cycloserine], in assay [1] (Well no.=78), the remaining activity at 1.25 µM is 100%. In addition, the remaining activity at 3.75 µM in assay [2] (Well no.=78) worked out at 102%.

On to `O=C[C@H](O)[C@@H](O)[C@@H](O)[C@H](O)CO` [D-Galactose], for which the remaining activity at 1.25 µM in assay [1] (Well no.=6871) came out at 103%. In addition, the remaining activity at 3.75 µM in assay [2] (Well no.=6871) amounted to 96.9%.

In the case of `O=C[C@H](O)[C@@H](O)[C@H](O)[C@H](O)COP(=O)(O)O` [D-Glucose 6-Phosphate], in assay [1] (Well no.=7263), the remaining activity at 1.25 µM was 98.2%. The remaining activity at 3.75 µM in assay [2] (Well no.=7263) is 98.1%.

Take `OC[C@@H](O)[C@@H](O)[C@H](O)[C@H](O)CO` [D-Mannitol]: the remaining activity at 1.25 µM in assay [1] (Well no.=6397) was determined as 104%; in assay [1] (Well no.=8434) it was 96.7%. For the same compound, the values for the remaining activity at 3.75 µM in assay [2] (Well no.=6397) and in assay [2] (Well no.=8434) were 96.4% and 96.1%, respectively.

With `OC[C@H]1OC(O)[C@@H](O)[C@@H](O)[C@@H]1O` (stereo partly drawn) [D-Mannose], the remaining activity at 1.25 µM in assay [1] (Well no.=7407) was found to be 103%. Further, in assay [2] (Well no.=7407), the remaining activity at 3.75 µM was found to be 102%.

As to `N[C@H](CO)C(=O)O` [D-Serine], the remaining activity at 1.25 µM in assay [1] (Well no.=1362) stood at 92.8%. For the same compound, the remaining activity at 3.75 µM in assay [2] (Well no.=1362) is 93.5%.

For the compound `OC[C@@H](O)[C@@H](O)[C@H](O)[C@@H](O)CO` [D-Sorbitol], in assay [1] (Well no.=6253), the remaining activity at 1.25 µM amounted to 115%. Besides, the remaining activity at 3.75 µM in assay [2] (Well no.=6253) was 112%.

`CCCCCCCCCCCCCC(=O)N[C@H](C)[C@@H](O)c1ccccc1` [D-erythro MAPP]: the remaining activity at 1.25 µM in assay [1] (Well no.=4257) stood at 105%. Moreover, the remaining activity at 3.75 µM in assay [2] (Well no.=4257) was found to be 98.9%.

For `CCCCCCCCCCCCC/C=C/[C@@H](O)[C@@H](N)CO` [D-erythro-Sphingosine], in assay [1] (Well no.=7207), the remaining activity at 1.25 µM came out at 100%. In addition, the remaining activity at 3.75 µM in assay [2] (Well no.=7207) is 96.9%.

Consider `NC(=O)CC[C@@H](N)C(=O)O` [D-glutamine], for which the remaining activity at 1.25 µM in assay [1] (Well no.=4996) worked out at 98.2%. The remaining activity at 3.75 µM in assay [2] (Well no.=4996) is 99.6%.

Regarding `Nc1cccc(S(=O)(=O)N2CCCN(S(=O)(=O)c3ccc4c(c3)OCCO4)CC2)c1` [DASA-58], the remaining activity at 1.25 µM in assay [1] (Well no.=8818) amounted to 95.3%. Moreover, the remaining activity at 3.75 µM in assay [2] (Well no.=8818) worked out at 96.9%.

Take `Clc1ccc(N2C[C@H]3CC[C@@H](C2)N3)nn1` [DBO-83]: the remaining activity at 1.25 µM in assay [1] (Well no.=630) stood at 63.4%. The remaining activity at 3.75 µM in assay [2] (Well no.=630) worked out at 98.1%.

On to `CCCCc1ccc(NS(=O)(=O)c2ccc(F)cc2)cc1` [DC260126], for which, in assay [1] (Well no.=6272), the remaining activity at 1.25 µM came out at 94.7%. In assay [2] (Well no.=6272), the remaining activity at 3.75 µM worked out at 94.3%.

On to `CCn1c(=O)[nH]c2cc(Cl)c(Cl)cc21` [DCEBIO], for which the remaining activity at 1.25 µM in assay [1] (Well no.=538) was 102%. The remaining activity at 3.75 µM in assay [2] (Well no.=538) was determined as 104%.

In the case of `CCC(=O)N1CCN(C(=O)c2ccccc2)CC1` [DM 235], the remaining activity at 1.25 µM in assay [1] (Well no.=453) is 96.3%. Also, the remaining activity at 3.75 µM in assay [2] (Well no.=453) came out at 96%.

For `COc1cc(OC)c2cc(-c3ccncc3)cnc2c1` [DMPQ dihydrochloride], the remaining activity at 1.25 µM in assay [1] (Well no.=5933) was determined as 100%. Besides, in assay [2] (Well no.=5933), the remaining activity at 3.75 µM was 98.1%.
